Where a SMILES comes first, the peptide text is derived from it. Bridges are numbered along the chain shown (N, C = ends).
Assays:
[1] = Peptide stability assay with pepsin (RP-HPLC); assay type: in vitro ADME; conditions: isolated enzyme pepsin, pepsin 50:1 (w/v) in 0.2 M HCl, 37 °C, peptide 0.1 M [sic], RP-HPLC peak area as % of initial, read-out: structural integrity retained (percentage of peptide remaining) after incubation with pepsin
Procedure: (§1) Stability studies were conducted using purified cocotide tC1 (0.1 M) and S-alkylated tC1 (iodoacetamido) under specific buffer conditions. Pepsin stability was assessed by incubating the samples in a mixture of pepsin at a ratio of 50:1 (w/v) in 0.2 M HCl at 37 °C. For trypsin stability, the samples were treated with trypsin in 0.1 M ammonium bicarbonate buffer (pH 8) at 37 °C. Analysis of stability assays involved collecting samples at various time points, which were then analyzed by reversed-phase high-performance liquid chromatography (RP-HPLC) using a linear gradient of mobile phase A (0.05% trifluoroacetic acid in water) and mobile phase B (0.05% trifluoroacetic acid in acetonitrile) on an Aeris Peptide XB-C18 column (Phenomenex). The stability results were expressed as a percentage of the initial concentration and determined by the peak area of the HPLC profile.
(§2) 7 Proteolytic stability assays of cocotide tC1. Cocotide tC1 was incubated with either pepsin or trypsin at 37 °C for up to 6 h. S-alkylated tC1 was used as the control. At different time points, samples of cocotide tC1 and the control were quantified using reversed-phase high pressure liquid chromatography (RP-HPLC). The relative peak areas of the RP-HPLC profiles were used to quantify the percentage of peptides remaining after incubation with pepsin or trypsin.

[2] = Peptide stability assay with trypsin (RP-HPLC); assay type: in vitro ADME; conditions: isolated enzyme trypsin, trypsin in 0.1 M ammonium bicarbonate buffer pH 8, 37 °C, peptide 0.1 M [sic], RP-HPLC peak area as % of initial, read-out: structural integrity retained (percentage of peptide remaining) after incubation with trypsin
Procedure: as §1, §2

[3] = Iron-binding assay (High-Select Fe-NTA spin column, RP-HPLC of flowthroughs); conditions: 1 h at room temperature, six water washes, elution
Procedure: The High-Select Fe-NTA Phosphopeptide Enrichment Kit (Thermo Fisher Scientific, USA) was used to investigate the iron-binding abilities of cocotide tC1. Briefly, cocotide tC1 was suspended in the binding buffer provided. The spin column was first equilibrated by adding 200 μL of the binding buffer and then centrifuged at 1000 × g for 30 s (Thermo Fisher Scientific, USA). The suspended peptide sample was added to the spin column and incubated for 1 h at room temperature. The sample was then centrifuged again at 1000 × g for 30 s, and the flowthrough was collected. The spin column was then washed six times with 100 μL of deionized water. Each time, the sample was centrifuged at 1000 × g for 30 s before collecting the flowthrough. Finally, 100 μL of the elution buffer provided was added, and the sample was centrifuged at 1000 × g for another 30 s before collecting the final eluted flowthrough. All eight flowthroughs were analyzed by using RP-HPLC.

[4] = Ferric Reducing Antioxidant Power (FRAP) assay
Procedure: OxiSelect Ferric Reducing Antioxidant Power (FRAP) Assay Kit (Cell Biolabs, USA) was used to measure the antioxidant potential of cocotide tC1. The assay was performed according to the manufacturer’s instructions .

[5] = molecular target: T1, HaCaT cell lysate (Homo sapiens, UniProt P22830); assay type: binding; conditions: affinity enrichment mass spectrometry
T1 construct: incubated with HaCaT keratinocyte lysates; endogenous in cells; host or cells: HaCaT human keratinocytes
T1 sequence (P22830 55-423): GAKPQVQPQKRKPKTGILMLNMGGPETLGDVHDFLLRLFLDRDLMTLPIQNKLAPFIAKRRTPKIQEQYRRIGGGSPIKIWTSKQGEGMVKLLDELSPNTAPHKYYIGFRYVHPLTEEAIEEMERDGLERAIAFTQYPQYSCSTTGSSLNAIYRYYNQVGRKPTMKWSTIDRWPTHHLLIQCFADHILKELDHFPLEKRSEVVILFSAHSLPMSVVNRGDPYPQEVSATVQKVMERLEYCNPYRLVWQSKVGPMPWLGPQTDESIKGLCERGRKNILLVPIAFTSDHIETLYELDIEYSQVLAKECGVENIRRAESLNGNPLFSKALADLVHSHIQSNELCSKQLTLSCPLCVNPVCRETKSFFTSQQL

For `CC[C@H](C)[C@@H]1NC(=O)CNC(=O)[C@H](CCSC)NC(=O)[C@@H]2CCCN2C(=O)[C@H](Cc2ccc(O)cc2)NC(=O)[C@H](CC(C)C)NC(=O)[C@@H]2CSSC[C@@H]3NC(=O)[C@H](Cc4ccccc4)NC(=O)CNC(=O)CNC(=O)[C@H](C)NC(=O)[C@H](CO)NC(=O)[C@H](CC(C)C)NC(=O)[C@@H](N)CSSC[C@@H]4NC(=O)[C@H](CSSC[C@H](NC1=O)C(=O)N[C@@H](Cc1ccc(O)cc1)C(=O)NCC(=O)N[C@@H](CO)C(=O)NCC(=O)N[C@H](C(=O)O)CSSC[C@H](NC(=O)[C@H](CC(N)=O)NC(=O)CNC4=O)C(=O)NCC(=O)N2)NC(=O)[C@H](CC(=O)O)NC(=O)[C@H](CCSC)NC(=O)[C@@H]1CCCN1C(=O)[C@H](CC(N)=O)NC(=O)[C@H](Cc1ccccc1)NC(=O)[C@H](CCSC)NC3=O` [cocotide tC1] (H-CLSAGGFCMFNPMDCCGNCGCLYPMGICYGSGC-OH; disulfide 1-16, 8-21, 15-28, 19-33; N-terminus and C-terminus assumed), the remaining at 6 h [1] was over 80%, the remaining at 6 h [2] was over 80% and the “interaction with Fe-NTA agarose resin” value [3] was “interacts with the Fe-NTA agarose resin”. The “antioxidant power relative to ascorbic acid” value ([4]; FRAP value of tC1 versus ascorbic acid (positive control)) was 152 fold, the FRAP value ([4]; OxiSelect FRAP Assay Kit) was 55.1 Fe^2+ μM/μM and the “ferrochelatase as interacting protein” value [5] was “significant interacting partner”.
